One assay addresses DGKα (Homo sapiens (Human), UniProt P23743). Kind of assay: Biochemical DGK IC50 assay, DGKα ADP-Glo assay. The note with it: 7.5 nM enzyme, 140 μM ATP, 80 μM DAG. In outline:
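ADP-Glo read-out with full-length DGKα on DAG/PS lipid micelle substrate in 25 mM HEPES pH 7.0, 0.5 mM EDTA, 160 mM octyl β-D-glucopyranoside. Compound final concentrations spanned 1.55˜10000 nM or 23.3˜150000 nM.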
(ADP-Glo first removes unused ATP, then detects ADP through luciferase.)

The target of another assay is DGKζ (Homo sapiens (Human), UniProt Q13574). Kind of assay: Biochemical DGK IC50 assay, DGKζ ADP-Glo assay. The note with it: 0.5 nM enzyme, 140 μM ATP, 80 μM DAG; read-out: DGKζ ADP-Glo assay IC50. Summed up: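 Full-length human DGKζ, His-TEV tagged and purified from baculovirus-infected Sf9 cells, assayed by ADP-Glo with DAG/PS lipid micelle substrate prepared in 25 mM HEPES pH 7.0 with octyl glucoside. Final compound concentrations spanned 1.55–10000 nM or 23.3–150000 nM.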
DGKζ, sequence (Q13574 other isoform, or with tags, fused parts or gaps): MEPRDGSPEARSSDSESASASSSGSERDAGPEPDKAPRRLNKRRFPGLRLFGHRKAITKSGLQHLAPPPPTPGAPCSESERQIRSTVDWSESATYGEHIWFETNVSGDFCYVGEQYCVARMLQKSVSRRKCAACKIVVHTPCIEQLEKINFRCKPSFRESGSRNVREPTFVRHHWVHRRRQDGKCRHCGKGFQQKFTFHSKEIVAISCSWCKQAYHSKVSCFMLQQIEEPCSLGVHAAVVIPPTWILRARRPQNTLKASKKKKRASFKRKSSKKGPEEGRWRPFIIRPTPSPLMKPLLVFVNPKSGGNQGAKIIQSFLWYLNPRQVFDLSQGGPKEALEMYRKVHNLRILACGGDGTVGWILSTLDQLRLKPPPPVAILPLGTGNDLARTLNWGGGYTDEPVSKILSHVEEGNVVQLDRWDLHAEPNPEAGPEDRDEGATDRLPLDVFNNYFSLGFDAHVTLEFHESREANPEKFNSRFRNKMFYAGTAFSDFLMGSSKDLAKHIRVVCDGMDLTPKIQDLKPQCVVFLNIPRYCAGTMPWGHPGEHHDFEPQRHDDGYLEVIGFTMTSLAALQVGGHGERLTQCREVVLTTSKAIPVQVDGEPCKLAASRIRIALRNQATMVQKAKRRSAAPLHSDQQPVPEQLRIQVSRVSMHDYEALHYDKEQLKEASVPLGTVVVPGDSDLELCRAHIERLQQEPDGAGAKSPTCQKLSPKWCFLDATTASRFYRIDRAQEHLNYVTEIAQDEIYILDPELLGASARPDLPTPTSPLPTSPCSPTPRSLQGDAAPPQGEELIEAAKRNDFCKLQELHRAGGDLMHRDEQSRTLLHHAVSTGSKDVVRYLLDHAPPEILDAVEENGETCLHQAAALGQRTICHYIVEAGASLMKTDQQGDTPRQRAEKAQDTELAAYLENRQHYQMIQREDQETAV

DGKα, sequence (P23743 whole entry): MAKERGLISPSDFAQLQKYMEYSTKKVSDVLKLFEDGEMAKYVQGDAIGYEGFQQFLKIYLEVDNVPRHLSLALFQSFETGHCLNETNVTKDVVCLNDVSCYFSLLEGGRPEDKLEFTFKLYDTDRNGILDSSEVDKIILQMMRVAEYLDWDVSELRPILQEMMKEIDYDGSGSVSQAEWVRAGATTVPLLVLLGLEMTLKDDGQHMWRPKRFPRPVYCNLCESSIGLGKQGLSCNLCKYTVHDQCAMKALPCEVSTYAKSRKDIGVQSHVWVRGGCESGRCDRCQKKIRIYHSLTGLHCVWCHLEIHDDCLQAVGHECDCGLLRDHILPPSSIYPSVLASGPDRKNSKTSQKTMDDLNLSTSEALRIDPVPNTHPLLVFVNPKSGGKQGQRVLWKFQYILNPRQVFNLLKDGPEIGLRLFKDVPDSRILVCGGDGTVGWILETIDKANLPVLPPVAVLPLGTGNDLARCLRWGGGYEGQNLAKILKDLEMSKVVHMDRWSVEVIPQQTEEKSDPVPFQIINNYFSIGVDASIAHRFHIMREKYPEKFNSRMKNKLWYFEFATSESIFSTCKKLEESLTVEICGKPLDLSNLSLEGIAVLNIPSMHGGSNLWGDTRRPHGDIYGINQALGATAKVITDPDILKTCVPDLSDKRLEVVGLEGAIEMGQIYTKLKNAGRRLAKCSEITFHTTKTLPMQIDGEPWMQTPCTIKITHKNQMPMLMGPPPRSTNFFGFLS

The term IC50 denotes the midpoint of a concentration-inhibition curve. For the compound `CC#CCn1cc2c(n1)c(N1C[C@@H](C)N(C(C)c3ccc4ncc(C(F)F)nc4c3)C[C@@H]1C)cc(=O)n2C` (stereo partly drawn) [Compound A335, 2-(but-2-yn-1-yl)-7-((2S,5R)-4-(1-(3-(difluoromethyl)quinoxalin-6-yl)ethyl)-2,5-dimethylpiperazin-1-yl)-4-methyl-2,4-dihydro-5H-pyrazolo[4,3-b]pyridin-5-one], the IC50 on DGKα turned out to be 610 nM; on DGKζ it was 142 nM.
For `CC#CCn1cc2c(n1)c(N1C[C@@H](C)N([C@@H](C)c3ccc4ncc(C)nc4c3)C[C@@H]1C)cc(=O)n2C` [Compound A336], in that order: 1570 nM and 60 nM.
For `CC[C@H]1CN(C(C)c2ccc3c(n2)OCC3)[C@H](CC)CN1c1cc(=O)n(C)c2cn(CC#N)nc12` (stereo partly drawn) [Compound A337, 2-(7-((2S,5R)-4-(1-(2,3-dihydrofuro[2,3-b]pyridin-6-yl)ethyl)-2,5-diethylpiperazin-1-yl)-4-methyl-5-oxo-4,5-dihydro-2H-pyrazolo[4,3-b]pyridin-2-yl)acetonitrile], in that order: 203 nM and 283 nM.
With `CC[C@H]1CN(C(C)c2ccc(C(C)(C)C#N)cc2)[C@H](CC)CN1c1cc(=O)n(C)c2cn(CC#N)nc12` (stereo partly shown) [Compound A338], the IC50 at DGKα came to 527 nM; on DGKζ, 160 nM.
With `CCC(c1ccc(C(C)(C)C#N)cc1)N1C[C@H](CC)N(c2cc(=O)n(C)c3cn(CC#N)nc23)C[C@H]1CC` (stereo partly drawn) [Compound A339, 2-(4-(1-((2R,5S)-4-(2-(cyanomethyl)-4-methyl-5-oxo-4,5-dihydro-2H-pyrazolo[4,3-b]pyridin-7-yl)-2,5-diethylpiperazin-1-yl)propyl)phenyl)-2-methylpropanenitrile], the concentration for half-maximal inhibition (IC50) is 5360 nM against DGKα and 361 nM at DGKζ.
As for `CC[C@H]1CN(C(C)c2ccc(C)cc2F)[C@H](CC)CN1c1cc(=O)n(C)c2cn(CC#N)nc12` (stereo partly shown) [Compound A340], the figures for the IC50 against DGKα and at DGKζ were 485 nM and 248 nM, respectively.
For `CC(c1ccc(CN2CCOC(C)(C)C2)cc1)N1C[C@H](C)N(c2cc(=O)n(C)c3cn(CC#N)nc23)C[C@H]1C` (stereo partly drawn) [Compound A341, 2-(7-((2S,5R)-4-(1-(4-((2,2-dimethylmorpholino)methyl)phenyl)ethyl)-2,5-dimethylpiperazin-1-yl)-4-methyl-5-oxo-4,5-dihydro-2H-pyrazolo[4,3-b]pyridin-2-yl)acetonitrile] the same measures were 1620 nM and 4250 nM.
Consider `CC[C@H]1CN(C(C)c2ccc(CN3CCOC(C)(C)C3)cc2)[C@H](CC)CN1c1cc(=O)n(C)c2cn(CC#N)nc12` (stereo partly shown) [Compound A342], for which the values for the 50% inhibitory concentration (IC50) against DGKα and on DGKζ were 229 nM and 353 nM, respectively.
For `CC[C@H]1CN(C(C)c2ccc(CN3C[C@@H](C)O[C@@H](C)C3)cc2)[C@H](CC)CN1c1cc(=O)n(C)c2cn(CC#N)nc12` (stereo partly drawn) [Compound A343, 2-(7-((2S,5R)-4-(1-(4-(((2S,6R)-2,6-dimethylmorpholino)methyl)phenyl)ethyl)-2,5-diethylpiperazin-1-yl)-4-methyl-5-oxo-4,5-dihydro-2H-pyrazolo[4,3-b]pyridin-2-yl)acetonitrile] the same measures were 246 nM and 675 nM.
For `CC[C@H]1CN(C(C)c2ccc(CN3CCC(F)(F)CC3)cc2)[C@H](CC)CN1c1cc(=O)n(C)c2cn(CC#N)nc12` (stereo partly shown) [Compound A344], in that order: 108 nM and 198 nM.
For `CC[C@H]1CN(C(C)c2ccc(C(C)(C)C#N)cc2F)[C@H](CC)CN1c1cc(=O)n(C)c2cn(CC#N)nc12` (stereo partly drawn) [Compound A345, 2-(4-(1-((2R,5S)-4-(2-(cyanomethyl)-4-methyl-5-oxo-4,5-dihydro-2H-pyrazolo[4,3-b]pyridin-7-yl)-2,5-diethylpiperazin-1-yl)ethyl)-3-fluorophenyl)-2-methylpropanenitrile], the figures for the IC50 against DGKα and on DGKζ were 852 nM and 205 nM, respectively.
For `CC[C@H]1CN(C(C)c2ccc(C)cn2)[C@H](CC)CN1c1cc(=O)n(C)c2cn(CC#N)nc12` (stereo partly shown) [Compound A346], in that order: 29 nM and 556 nM.
For `CC[C@H]1CN(C(C)c2ccc(C3CC3)nc2)[C@H](CC)CN1c1cc(=O)n(C)c2cn(CC#N)nc12` (stereo partly drawn) [Compound A350, 2-(7-((2S,5R)-4-(1-(6-cyclopropylpyridin-3-yl)ethyl)-2,5-diethylpiperazin-1-yl)-4-methyl-5-oxo-4,5-dihydro-2H-pyrazolo[4,3-b]pyridin-2-yl)acetonitrile] the same measures were 945 nM and 249 nM.
Regarding `CC[C@H]1CN(C(C)c2ccc3c(n2)C(C)(C)CO3)[C@H](CC)CN1c1cc(=O)n(C)c2cn(CC#N)nc12` (stereo partly drawn) [Compound A352, 2-(7-((2S,5R)-4-(1-(3,3-dimethyl-2,3-dihydrofuro[3,2-b]pyridin-5-yl)ethyl)-2,5-diethylpiperazin-1-yl)-4-methyl-5-oxo-4,5-dihydro-2H-pyrazolo[4,3-b]pyridin-2-yl)acetonitrile], the results for the IC50 against DGKα and at DGKζ were 5400 nM and 6 nM, respectively.
For `CC[C@H]1CN(C(C)c2cnc(C)cn2)[C@H](CC)CN1c1cc(=O)n(C)c2cn(CC#N)nc12` (stereo partly shown) [Compound A356], in that order: 635 nM and 1570 nM.
For `CC[C@H]1CN(C(C)c2cnc(OC(C)C)cc2F)[C@H](CC)CN1c1cc(=O)n(C)c2cn(CC#N)nc12` (stereo partly shown) [Compound A358], in that order: 5830 nM and 373 nM.
Turning to `CC[C@H]1CN(C(C)c2ncc(C)cc2F)[C@H](CC)CN1c1cc(=O)n(C)c2cn(CC#N)nc12` (stereo partly shown) [Compound A359], the IC50 was 117 nM against DGKα and 299 nM at DGKζ.
For `CC[C@H]1CN(C(C)c2ccc(OC(F)(F)F)cn2)[C@H](CC)CN1c1cc(=O)n(C)c2cn(CC#N)nc12` (stereo partly shown) [Compound A361], in that order: 5.1 nM and 554 nM.
For `CC[C@H]1CN(C(C)c2ccc(C)c(C)n2)[C@H](CC)CN1c1cc(=O)n(C)c2cn(CC#N)nc12` (stereo partly shown) [Compound A363] the same measures were 166 nM and 55 nM.
For `CC[C@H]1CN(C(C)c2ccc(C)c(OC)n2)[C@H](CC)CN1c1cc(=O)n(C)c2cn(CC#N)nc12` (stereo partly shown) [Compound A364], in that order: 2520 nM and 288 nM.
On to `CC[C@H]1CN(C(C)c2ccc(C)nn2)[C@H](CC)CN1c1cc(=O)n(C)c2cn(CC#N)nc12` (stereo partly shown) [Compound A365], for which the IC50 turned out to be 794 nM at DGKα and 4710 nM at DGKζ.
For `CC[C@H]1CN(C(C)c2ccc3cc(C)ncc3c2)[C@H](CC)CN1c1cc(=O)n(C)c2cn(CC#N)nc12` (stereo partly shown) [Compound A366] the same measures were 366 nM and 644 nM.
For `CC[C@H]1CN(C(C)c2cc3ccccc3c(C)n2)[C@H](CC)CN1c1cc(=O)n(C)c2cn(CC#N)nc12` (stereo partly shown) [Compound A367], in that order: 19300 nM and 3590 nM.
For `CC[C@@H]1CN(c2cc(=O)n(C)c3cn(CC#N)nc23)[C@@H](CC)CN1C(=O)c1ccc(C2CC2)cc1` [Compound A369], in that order: 294 nM and 1090 nM.
As to `CC[C@@H]1CN(c2cc(=O)n(C)c3cn(CC#N)nc23)[C@@H](CC)CN1C(=O)c1ccc(C)cn1` [Compound A370], the IC50 was 363 nM at DGKα and over 10000 nM at DGKζ.
For `CC[C@@H]1CN(c2cc(=O)n(C)c3cn(CC#N)nc23)[C@@H](CC)CN1C(=O)c1cc2cnccc2cn1` [Compound A371] the same measures were 717 nM and over 10000 nM.

The record behind these values is patent US20240270751A1, “Pyrazolopyridinone Compounds” (BeiGene Ltd., priority 2021, published 2024).
